The numbers were not newly measured in patent US20050042271A1, “Transdermal delivery system for alkaloids of aconitum species” (priority 1999, published 2005), which cites them from elsewhere.

The conditions of series [1]: all layers of epidermis and dermis; irreversible damage, scarring.

Turning to `CCCCCCCCCCCCN1CCCCCC1=O` [Azone, laurocapram], the skin irritation entry in series [1] is “severe skin irritation”.

As to `CCN1C[C@@]2(COC)[C@H]3[C@@H](OC)[C@H]4[C@@H]1[C@]3([C@@H](OC)C[C@H]2OC(C)=O)[C@@H]1C[C@@]2(O)[C@H](OC(=O)c3ccccc3)[C@@H]1[C@]4(OC(C)=O)[C@@H](O)[C@@H]2OC` [3-acetylaconitine], the “affinity for opioid receptors” value in the series on opioid receptors is given as “without affinity for opioid receptors”.

For the compound `CCN1C[C@]2(OC(=O)c3ccccc3NC(C)=O)CC[C@H](OC)[C@@]34[C@@H]2C[C@@H]([C@@H]13)[C@@]1(O)C[C@H](OC)[C@H]2C[C@@H]4[C@]1(O)[C@H]2OC` [lappaconitine], the “affinity for opioid receptors” value with opioid receptors was “without affinity for opioid receptors”.

Consider bulleyaconitine A, for which the “affinity for opioid receptors” value in the series on opioid receptors is recorded as “without affinity for opioid receptors”.
